Laboratory results published in the NIST ThermoML archive (doi:10.1021/je050085p).
Numbers after ± are expanded uncertainties.

Columns and labels:
[1] = refractive index (Na D-line) (dimensionless); conditions: 101.33 kPa, Liquid, Standard Abbe refractometry
[2] = 308.15 K; 101.33 kPa; Liquid
[3] = xn = mol fraction of the nth substance listed; conditions: 308.15 K, 101 kPa, Liquid
[4] = excess molar enthalpy (molar enthalpy of mixing); xn = mol fraction of the nth substance listed; conditions: 308.15 K, 101 kPa, Liquid, Flow calorimetry
[5] = refractive index (Na D-line) (dimensionless); xn = mol fraction of the nth substance listed; conditions: 308.15 K, 101 kPa, Liquid, Standard Abbe refractometry

## OCCc1ccccc1 [2-phenylethanol]
[1]; 298.15 K
  refractive index: 1.5321 ± 0.0007
[1]; 308.15 K
  refractive index: 1.5269 ± 0.0007
[2]
  mass density: 1008.75 ± 0.56 kg/m3

## OCCCc1ccccc1 [3-phenyl-1-propanol] + CCOc1ccccc1
[3]; x2 = 0.0636
  mass density: 988.77 ± 0.52 kg/m3
[3]; x2 = 0.1067
  mass density: 987.22 ± 0.52 kg/m3
[3]; x2 = 0.2164
  mass density: 983.2 ± 0.52 kg/m3
[3]; x2 = 0.31
  mass density: 979.65 ± 0.52 kg/m3
[3]; x2 = 0.417
  mass density: 975.46 ± 0.52 kg/m3
[3]; x2 = 0.515
  mass density: 971.51 ± 0.52 kg/m3
[3]; x2 = 0.6168
  mass density: 967.29 ± 0.52 kg/m3
[3]; x2 = 0.7074
  mass density: 963.43 ± 0.52 kg/m3
[3]; x2 = 0.7975
  mass density: 959.53 ± 0.52 kg/m3
[3]; x2 = 0.8977
  mass density: 955.2 ± 0.5 kg/m3
[3]; x2 = 0.9488
  mass density: 952.99 ± 0.52 kg/m3
[3]; x2 = 0.9596
  mass density: 952.53 ± 0.52 kg/m3
[4]; x2 = 0.0427
  excess molar enthalpy: 0.0329 ± 0.000837 kcal/mol
[4]; x2 = 0.0818
  excess molar enthalpy: 0.0631 ± 0.00143 kcal/mol
[4]; x2 = 0.118
  excess molar enthalpy: 0.088 ± 0.00196 kcal/mol
[4]; x2 = 0.1513
  excess molar enthalpy: 0.114 ± 0.00239 kcal/mol
[4]; x2 = 0.211
  excess molar enthalpy: 0.146 ± 0.00311 kcal/mol
[4]; x2 = 0.2629
  excess molar enthalpy: 0.167 ± 0.00359 kcal/mol
[4]; x2 = 0.3485
  excess molar enthalpy: 0.193 ± 0.00406 kcal/mol
[4]; x2 = 0.4162
  excess molar enthalpy: 0.212 ± 0.00454 kcal/mol
[4]; x2 = 0.5169
  excess molar enthalpy: 0.236 ± 0.00502 kcal/mol
[4]; x2 = 0.6162
  excess molar enthalpy: 0.257 ± 0.0055 kcal/mol
[4]; x2 = 0.6815
  excess molar enthalpy: 0.267 ± 0.00574 kcal/mol
[4]; x2 = 0.7625
  excess molar enthalpy: 0.267 ± 0.00574 kcal/mol
[4]; x2 = 0.8106
  excess molar enthalpy: 0.255 ± 0.0055 kcal/mol
[4]; x2 = 0.8596
  excess molar enthalpy: 0.225 ± 0.00478 kcal/mol
[4]; x2 = 0.8954
  excess molar enthalpy: 0.194 ± 0.0043 kcal/mol
[4]; x2 = 0.9277
  excess molar enthalpy: 0.152 ± 0.00335 kcal/mol
[4]; x2 = 0.9625
  excess molar enthalpy: 0.0896 ± 0.00208 kcal/mol
[5]; x2 = 0.0636
  refractive index: 1.5203 ± 0.0007
[5]; x2 = 0.1067
  refractive index: 1.5194 ± 0.0007
[5]; x2 = 0.2164
  refractive index: 1.5173 ± 0.0007
[5]; x2 = 0.31
  refractive index: 1.5153 ± 0.0007
[5]; x2 = 0.417
  refractive index: 1.513 ± 0.0007
[5]; x2 = 0.515
  refractive index: 1.5109 ± 0.0007
[5]; x2 = 0.6168
  refractive index: 1.5086 ± 0.0007
[5]; x2 = 0.7074
  refractive index: 1.5066 ± 0.0007
[5]; x2 = 0.7975
  refractive index: 1.5045 ± 0.0007
[5]; x2 = 0.8977
  refractive index: 1.5023 ± 0.0007
[5]; x2 = 0.9488
  refractive index: 1.5012 ± 0.0007
[5]; x2 = 0.9596
  refractive index: 1.501 ± 0.0007

## CCOc1ccccc1 [ethoxybenzene] + OCCc1ccccc1
[3]; x1 = 0.0656
  mass density: 1004.96 ± 0.53 kg/m3
[3]; x1 = 0.1079
  mass density: 1002.5 ± 0.52 kg/m3
[3]; x1 = 0.1726
  mass density: 998.71 ± 0.52 kg/m3
[3]; x1 = 0.3041
  mass density: 990.99 ± 0.52 kg/m3
[3]; x1 = 0.3803
  mass density: 986.52 ± 0.52 kg/m3
[3]; x1 = 0.4826
  mass density: 980.37 ± 0.52 kg/m3
[3]; x1 = 0.5243
  mass density: 978.09 ± 0.52 kg/m3
[3]; x1 = 0.5904
  mass density: 974.22 ± 0.52 kg/m3
[3]; x1 = 0.6819
  mass density: 968.87 ± 0.52 kg/m3
[3]; x1 = 0.7929
  mass density: 962.44 ± 0.52 kg/m3
[3]; x1 = 0.8881
  mass density: 957 ± 0.52 kg/m3
[3]; x1 = 0.9469
  mass density: 953.74 ± 0.52 kg/m3
[3]; x1 = 0.9881
  mass density: 951.5 ± 0.52 kg/m3
[4]; x1 = 0.0378
  excess molar enthalpy: 0.027 ± 0.000717 kcal/mol
[4]; x1 = 0.0728
  excess molar enthalpy: 0.0534 ± 0.00124 kcal/mol
[4]; x1 = 0.1054
  excess molar enthalpy: 0.0772 ± 0.00172 kcal/mol
[4]; x1 = 0.1358
  excess molar enthalpy: 0.0979 ± 0.00215 kcal/mol
[4]; x1 = 0.1907
  excess molar enthalpy: 0.135 ± 0.00287 kcal/mol
[4]; x1 = 0.2391
  excess molar enthalpy: 0.159 ± 0.00335 kcal/mol
[4]; x1 = 0.3203
  excess molar enthalpy: 0.193 ± 0.00406 kcal/mol
[4]; x1 = 0.3858
  excess molar enthalpy: 0.218 ± 0.00478 kcal/mol
[4]; x1 = 0.4852
  excess molar enthalpy: 0.245 ± 0.00526 kcal/mol
[4]; x1 = 0.5857
  excess molar enthalpy: 0.268 ± 0.00574 kcal/mol
[4]; x1 = 0.6534
  excess molar enthalpy: 0.275 ± 0.00598 kcal/mol
[4]; x1 = 0.7388
  excess molar enthalpy: 0.273 ± 0.00598 kcal/mol
[4]; x1 = 0.7904
  excess molar enthalpy: 0.264 ± 0.00574 kcal/mol
[4]; x1 = 0.8498
  excess molar enthalpy: 0.232 ± 0.00502 kcal/mol
[4]; x1 = 0.8829
  excess molar enthalpy: 0.204 ± 0.0043 kcal/mol
[4]; x1 = 0.9188
  excess molar enthalpy: 0.161 ± 0.00359 kcal/mol
[4]; x1 = 0.9577
  excess molar enthalpy: 0.0965 ± 0.00222 kcal/mol
[5]; x1 = 0.0656
  refractive index: 1.5252 ± 0.0007
[5]; x1 = 0.1079
  refractive index: 1.524 ± 0.0007
[5]; x1 = 0.1726
  refractive index: 1.5223 ± 0.0007
[5]; x1 = 0.3041
  refractive index: 1.5187 ± 0.0007
[5]; x1 = 0.3803
  refractive index: 1.5166 ± 0.0007
[5]; x1 = 0.4826
  refractive index: 1.5137 ± 0.0007
[5]; x1 = 0.5243
  refractive index: 1.5126 ± 0.0007
[5]; x1 = 0.5904
  refractive index: 1.5108 ± 0.0007
[5]; x1 = 0.6819
  refractive index: 1.5083 ± 0.0007
[5]; x1 = 0.7929
  refractive index: 1.5054 ± 0.0007
[5]; x1 = 0.8881
  refractive index: 1.5029 ± 0.0007
[5]; x1 = 0.9469
  refractive index: 1.5014 ± 0.0007
[5]; x1 = 0.9881
  refractive index: 1.5005 ± 0.0007

## CCOc1ccccc1 [ethoxybenzene] + OCc1ccccc1
[3]; x1 = 0.0642
  mass density: 1027.61 ± 0.22 kg/m3
[3]; x1 = 0.0826
  mass density: 1025.86 ± 0.22 kg/m3
[3]; x1 = 0.1663
  mass density: 1018.18 ± 0.23 kg/m3
[3]; x1 = 0.1751
  mass density: 1017.38 ± 0.23 kg/m3
[3]; x1 = 0.2585
  mass density: 1009.89 ± 0.25 kg/m3
[3]; x1 = 0.3363
  mass density: 1003.06 ± 0.27 kg/m3
[3]; x1 = 0.4598
  mass density: 992.51 ± 0.32 kg/m3
[3]; x1 = 0.544
  mass density: 985.53 ± 0.35 kg/m3
[3]; x1 = 0.6369
  mass density: 978.04 ± 0.39 kg/m3
[3]; x1 = 0.7572
  mass density: 968.65 ± 0.43 kg/m3
[3]; x1 = 0.8621
  mass density: 960.77 ± 0.47 kg/m3
[3]; x1 = 0.9361
  mass density: 955.37 ± 0.5 kg/m3
[4]; x1 = 0.0328
  excess molar enthalpy: 0.0247 ± 0.000669 kcal/mol
[4]; x1 = 0.0636
  excess molar enthalpy: 0.0454 ± 0.00108 kcal/mol
[4]; x1 = 0.0924
  excess molar enthalpy: 0.0677 ± 0.00153 kcal/mol
[4]; x1 = 0.1195
  excess molar enthalpy: 0.0854 ± 0.00189 kcal/mol
[4]; x1 = 0.1691
  excess molar enthalpy: 0.118 ± 0.00263 kcal/mol
[4]; x1 = 0.2135
  excess molar enthalpy: 0.147 ± 0.00311 kcal/mol
[4]; x1 = 0.2893
  excess molar enthalpy: 0.177 ± 0.00382 kcal/mol
[4]; x1 = 0.3517
  excess molar enthalpy: 0.205 ± 0.0043 kcal/mol
[4]; x1 = 0.4488
  excess molar enthalpy: 0.232 ± 0.00502 kcal/mol
[4]; x1 = 0.5499
  excess molar enthalpy: 0.252 ± 0.0055 kcal/mol
[4]; x1 = 0.6196
  excess molar enthalpy: 0.262 ± 0.00574 kcal/mol
[4]; x1 = 0.7095
  excess molar enthalpy: 0.266 ± 0.00574 kcal/mol
[4]; x1 = 0.7651
  excess molar enthalpy: 0.259 ± 0.0055 kcal/mol
[4]; x1 = 0.8301
  excess molar enthalpy: 0.232 ± 0.00502 kcal/mol
[4]; x1 = 0.8669
  excess molar enthalpy: 0.209 ± 0.00454 kcal/mol
[4]; x1 = 0.907
  excess molar enthalpy: 0.169 ± 0.00359 kcal/mol
[4]; x1 = 0.9513
  excess molar enthalpy: 0.104 ± 0.00234 kcal/mol
[5]; x1 = 0.0642
  refractive index: 1.5322 ± 0.0007
[5]; x1 = 0.0826
  refractive index: 1.5313 ± 0.0007
[5]; x1 = 0.1663
  refractive index: 1.5279 ± 0.0007
[5]; x1 = 0.1751
  refractive index: 1.5275 ± 0.0007
[5]; x1 = 0.2585
  refractive index: 1.5244 ± 0.0007
[5]; x1 = 0.3363
  refractive index: 1.5216 ± 0.0007
[5]; x1 = 0.4598
  refractive index: 1.5172 ± 0.0007
[5]; x1 = 0.544
  refractive index: 1.5142 ± 0.0007
[5]; x1 = 0.6369
  refractive index: 1.5111 ± 0.0007
[5]; x1 = 0.7572
  refractive index: 1.5071 ± 0.0007
[5]; x1 = 0.8621
  refractive index: 1.5039 ± 0.0007
[5]; x1 = 0.9361
  refractive index: 1.5018 ± 0.0007
